Results published in patent EP0889886B1, “NOVEL PHENANTHRIDINES SUBSTITUTED IN THE 6 POSITION” (ALTANA Pharma AG, priority 1996, dated 1997).
Counter-ions that a name gives are not always drawn.

Tested on: PDE IV
Test: Inhibition of PDE IV activity (method of Bauer and Schwabe, adapted to microtiter plates)
Format: biochemical
Conditions: Hemmung der PDE IV-Aktivität
Procedure: Hierbei erfolgt im ersten Schritt die PDE-Reaktion. In einem zweiten Schritt wird das entstandene 5'-Nukleotid durch eine 5'-Nukleotidase des Schlangengiftes von Crotalus Atrox zum ungeladenen Nukleosid gespalten. Im dritten Schritt wird das Nukleosid auf lonenaustauschsäulen vom verbliebenen geladenen Substrat getrennt. Die Säulen werden mit 2 ml 30 mM Ammoniumformiat (pH 6,0) direkt in Minivials eluiert, in die noch 2 ml Szintillatorflüssigkeit zur Zählung gegeben wird.

SMILES	-log IC50
COc1cc2c(cc1OC)C1CC=CCC1N=C2c1ccc(NS(=O)(=O)c2ccc(C)cc2)cc1 (racemic) [Verbindung 10, (+/-)-trans-8,9-Dimethoxy-6-(4-p-toluolsulfonamidophenyl)-1,4,4a,10b-tetrahydrophenanthridin-hydrochlorid]	6.10
CCOc1cc2c(cc1OC)C(c1ccc(NC(C)=O)cc1)=N[C@H]1CCCC[C@@H]21 (racemic) [Verbindung 32, (+/-)-cis-9-Ethoxy-8-methoxy-6-(4-acetamidophenyl)-1,2,3,4,4a,10b-hexahydrophenanthridin]	8.38
CCOc1cc2c(cc1OCC)[C@@H]1CCCC[C@@H]1N=C2c1ccc(-c2ccccc2)cc1 (racemic) [Verbindung 15, (+/-)-cis-6-Biphenyl-8,9-diethoxy-1,2,3,4,4a,10b-hexahydrophenanthridin]	7.98
COc1cc2c(cc1OC)[C@@H]1CCCC[C@@H]1N=C2c1ccc(NC(C)=O)cc1 (racemic) [Verbindung 31, (+/-)-cis-8,9-Dimethoxy-6-(4-acetamidophenyl)-1,2,3,4,4a,10b-hexahydrophenanthridin]	7.30
COc1cc2c(cc1OC1CCCC1)C(c1ccc(NS(=O)(=O)c3ccc(C)cc3)cc1)=N[C@@H]1CCCC[C@H]21 (racemic) [Verbindung 4, (+/-)-cis-8-Cyclopentyloxy-9-methoxy-6-(4-p-toluolsulfonamidophenyl)-1,2,3,4,4a,10bhexahydrophenanthridin]	6.12
CCOc1cc2c(cc1OCC)[C@@H]1CCCC[C@@H]1N=C2c1ccc(OC(C)=O)cc1 (racemic) [Verbindung 13, (+/-)-cis-6-(4-Acetoxyphenyl)-8,9-diethoxy-1,2,3,4,4a,10b-hexahydrophenanthridin]	8.43
CCOc1cc2c(cc1OCC)[C@@H]1CCCC[C@@H]1N=C2c1ccc(O)cc1 (racemic) [Verbindung 37, (+/-)-cis-8,9-Diethoxy-6-(4-hydroxyphenyl)-1,2,3,4,4a,10b-hexahydrophenanthridin]	8.04
CCOc1cc2c(cc1OCC)[C@@H]1CCCC[C@@H]1N=C2c1ccc(O)nc1 (racemic) [Verbindung 27, (+/-)-cis-8,9-Diethoxy-6-(2-hydroxypyrid-5-yl)-1,2,3,4,4a,10b-hexahydrophenanthridin]	6.66
CCOc1cc2c(cc1OCC)[C@@H]1CCCC[C@@H]1N=C2c1cccnc1.Cl (racemic) [Verbindung 25, (+/-)-cis-8,9-Diethoxy-6-(pyrid-3-yl)-1,2,3,4,4a,10b-hexahydrophenanthridin-hydrochlorid]	7.96
CCOc1cc2c(cc1OCC)[C@H]1CCCC[C@H]1N=C2c1ccc(C(F)(F)F)cc1 (racemic) [Verbindung 17, (+/-)-cis-8,9-Diethoxy-7-(4-trifluormethylphenyl)-1,2,3,4,4a,10b-hexahydrophenanthridin]	8.00
CCOc1cc2c(cc1OCC)[C@@H]1CCCC[C@@H]1N=C2c1ccc(C#N)cc1 (racemic) [Verbindung 18, (+/-)-cis-8,9-Diethoxy-6-(4-cyanophenyl)-1,2,3,4,4a,10b-hexahydrophenanthridin]	8.24
CCOc1cc2c(cc1OC)C(c1ccc(N)cc1)=N[C@H]1CCCC[C@@H]21 (racemic) [Verbindung 29, (+/-)-cis-9-Ethoxy-8-methoxy-6-(4-aminophenyl)-1,2,3,4,4a,10b-hexahydrophenanthridin]	7.69
COc1cc2c(cc1OC)C1CCCCC1N=C2c1ccc(NS(=O)(=O)c2ccc(C)cc2)cc1 (racemic) [Verbindung 9, (+/-)-trans-8,9-Dimethoxy-6-(4-p-toluolsulfonamidophenyl)-1,2,3,4,4a,10b-hexahydrophenanthridin-hydrochtorid]	6.17
COc1cc2c(cc1OC)C1C3CCC(CC3)C1N=C2c1ccc(NS(=O)(=O)c2ccc(C)cc2)cc1 (racemic) [Verbindung 12, (+/-)-trans-8,9-Dimethoxy-1,4-ethano-6-(4-p-toluolsulfonamidophenyl)-1,2,3,4,4a,10bhexahydrophenanthridin]	5.77
